From patent publication US20210338846A1, “COMPETITIVE PROSTATE-SPECIFIC MEMBRANE ANTIGEN (PSMA) BINDING AGENTS FOR REDUCTION OF NON-TARGET ORGAN UPTAKE OF RADIOLABELED PSMA INHIBITORS FOR PSMA POSITIVE TUMOR IMAGING AND RADIOPHARMACEUTICAL THERAPY” (The Johns Hopkins University, priority 2018, published 2021)
Where two headings read alike, the source gives them in different places.

Test system: PSMA+ PC-3 PiP and PSMA− PC-3 flu tumors
[1] = 1 h, co-injection 0.5 nmole YC-I-27
[2] = 2 hours (footnote a), co-injection 0.5 nmole YC-I-27
[3] = 24 h, co-injection 0.5 nmole YC-I-27

SMILES: O=C(O)CC[C@H](NC(=O)N[C@@H](CCC(=O)NCCc1ccc([125I])cc1)C(=O)O)C(=O)O [[^125I]HS-549]
- Biodistribution: Blood (1 h, No CI): 5.9 ± 1.0 % injected dose/gram
- Biodistribution: Flu tumor (1 h, No CI): 2.2 ± 0.5 % injected dose/gram
- Biodistribution: PiP tumor (1 h, No CI): 78 ± 19 % injected dose/gram
- Biodistribution: kidneys (1 h, No CI): 106 ± 19 % injected dose/gram
- Biodistribution: spleen (1 h, No CI): 6.8 ± 3.4 % injected dose/gram
- Biodistribution: stomach (1 h, No CI): 0.9 ± 0.2 % injected dose/gram
- Biodistribution: thyroid (1 h, No CI): 1.2 ± 0.4 % injected dose/gram
- Biodistribution: Blood [1]: 2.6 ± 0.6 % injected dose/gram
- Biodistribution: Flu tumor [1]: 1.0 ± 0.45 % injected dose/gram
- Biodistribution: Lacrimal gland [1]: 1.1 ± 0.4 % injected dose/gram
- Biodistribution: PiP tumor [1]: 31 ± 4.2 % injected dose/gram
- Biodistribution: Salivary gland [1]: 1.0 ± 0.2 % injected dose/gram
- Biodistribution: kidneys [1]: 12.1 ± 1.9 % injected dose/gram
- Biodistribution: spleen [1]: 0.8 ± 0.2 % injected dose/gram
- Biodistribution: stomach [1]: 0.8 ± 0.3 % injected dose/gram
- Biodistribution: thyroid [1]: 5.6 ± 9.2 % injected dose/gram
- Biodistribution: Blood [2]: 0.8 ± 0.1 % injected dose/gram
- Biodistribution: Flu tumor [2]: 0.3 ± 0.15 % injected dose/gram
- Biodistribution: Lacrimal gland [2]: 0.5 ± 0.3 % injected dose/gram
- Biodistribution: PiP tumor [2]: 39 ± 4 % injected dose/gram
- Biodistribution: Salivary gland [2]: 0.4 ± 0.2 % injected dose/gram
- Biodistribution: kidneys [2]: 2.8 ± 0.8 % injected dose/gram
- Biodistribution: spleen [2]: 0.4 ± 0.1 % injected dose/gram
- Biodistribution: stomach [2]: 0.3 ± 0.1 % injected dose/gram
- Biodistribution: thyroid [2]: 0.3 ± 0.1 % injected dose/gram
- Biodistribution: Blood (4 h, No CI): 2.9 ± 0.3 % injected dose/gram
- Biodistribution: Flu tumor (4 h, No CI): 1.5 ± 0.3 % injected dose/gram
- Biodistribution: PiP tumor (4 h, No CI): 75 ± 13 % injected dose/gram
- Biodistribution: kidneys (4 h, No CI): 97 ± 39 % injected dose/gram
- Biodistribution: spleen (4 h, No CI): 2.7 ± 0.8 % injected dose/gram
- Biodistribution: stomach (4 h, No CI): 0.5 ± 0.2 % injected dose/gram
- Biodistribution: thyroid (4 h, No CI): 0.7 ± 0.3 % injected dose/gram
- Biodistribution: Blood (21 hours (footnote b), No CI): 1.4 ± 0.4 % injected dose/gram
- Biodistribution: Flu tumor (21 hours (footnote b), No CI): 0.4 ± 0.2 % injected dose/gram
- Biodistribution: PiP tumor (21 hours (footnote b), No CI): 23 ± 2 % injected dose/gram
- Biodistribution: kidneys (21 hours (footnote b), No CI): 3.1 ± 1.6 % injected dose/gram
- Biodistribution: spleen (21 hours (footnote b), No CI): 0.3 ± 0.1 % injected dose/gram
- Biodistribution: stomach (21 hours (footnote b), No CI): 0.1 ± 0.04 % injected dose/gram
- Biodistribution: thyroid (21 hours (footnote b), No CI): 0.4 ± 0.05 % injected dose/gram
- Biodistribution: Blood [3]: 0.6 ± 0.3 % injected dose/gram
- Biodistribution: Flu tumor [3]: 0.2 ± 0.2 % injected dose/gram
- Biodistribution: Lacrimal gland [3]: 0.2 ± 0.1 % injected dose/gram
- Biodistribution: PiP tumor [3]: 35 ± 5 % injected dose/gram
- Biodistribution: Salivary gland [3]: 0.2 ± 0.1 % injected dose/gram
- Biodistribution: kidneys [3]: 0.7 ± 0.3 % injected dose/gram
- Biodistribution: spleen [3]: 0.1 ± 0.07 % injected dose/gram
- Biodistribution: stomach [3]: 0.1 ± 0.05 % injected dose/gram
- Biodistribution: thyroid [3]: 0.5 ± 0.8 % injected dose/gram
